Experimental data taken from ChEMBL document CHEMBL1130787, “Synthesis and in vitro antimalarial activity of sulfone endoperoxides” (Bioorg Med Chem Lett, 1998).

Test system: Plasmodium falciparum
Experiment: In vitro antimalarial activity against chloroquine-sensitive Plasmodium falciparum NF 54
Type: functional, organism-based

SMILES	IC50
CC(=O)CC(=O)OC1(C)CCC2CC1OO[C@@]2(C)CS(=O)(=O)c1ccccc1 (some centres undefined)	0.046 µM
CC1(OC(=O)C(=O)N(Cc2ccccc2)Cc2ccccc2)CCC2CC1OO[C@]2(C)CS(=O)(=O)c1ccccc1 (some centres undefined)	0.081 µM
CC1(CSc2ccccc2)OOC2CC1CC[C@@]2(C)O.CC1(CSc2ccccc2)OOC2CC1CC[C@]2(C)O (some centres undefined)	> 2.5 µM
COc1ccc(COC2(C)CCC3CC2OO[C@@]3(C)CS(=O)(=O)c2ccccc2)cc1 (some centres undefined)	0.014 µM
C[C@@H]1CC[C@H]2[C@@H](C)C(=O)O[C@@H]3O[C@@]4(C)CC[C@@H]1[C@]32OO4 [ARTEMISININ]	0.0093 µM
CCOC(=O)C(=O)OC1(C)CCC2CC1OO[C@]2(C)CS(=O)(=O)c1ccccc1 (some centres undefined)	0.14 µM
CC(=O)CC(=O)OC1(C)CCC2CC1OO[C@]2(C)CS(=O)(=O)c1ccccc1 (some centres undefined)	0.073 µM
CCOC(=O)C(=O)OC1(C)CCC2CC1OO[C@@]2(C)CS(=O)(=O)c1ccccc1 (some centres undefined)	0.17 µM
CC1(O)CCC2CC1OO[C@@]2(C)CS(=O)(=O)c1ccccc1 (some centres undefined)	0.055 µM
CC(=O)OC1(C)CCC2CC1OO[C@]2(C)CS(=O)(=O)c1ccccc1 (some centres undefined)	0.017 µM
C[C@@H]1C(=O)C[C@H]2CC1OO[C@@]2(C)/C=C\c1ccc(C(F)(F)F)cc1C(F)(F)F (single isomer, unassigned) [ARTEFLENE]	0.071 µM
CC1(OC(=O)C(=O)N(Cc2ccccc2)Cc2ccccc2)CCC2CC1OO[C@@]2(C)CS(=O)(=O)c1ccccc1 (some centres undefined)	0.021 µM
CC(=O)OC1(C)CCC2CC1OO[C@@]2(C)CS(=O)(=O)c1ccccc1 (some centres undefined)	0.017 µM
CC1(O)CCC2CC1OO[C@]2(C)CS(=O)(=O)c1ccccc1 (some centres undefined)	0.089 µM
